The source made the active and inactive calls. No cut-off for these calls is given here.
Key:
[1] = Volume of distribution at steady state in Sprague-Dawley rat at 10 mg/kg, iv administered as single dose measured upto 24 hrs by LC-MS/MS analysis; assay type: ADME, organism-based; settings: in vivo, read-out: Vdss
in vitro [2] = settings: human, Caco-2
Description: Efflux ratio of apparent permeability across basolateral to apical membrane over apical to basolateral membrane in human Caco-2 cells

[3] = AUC (0 to t) in Sprague-Dawley rat at 10 mg/kg, iv administered as single dose measured upto 24 hrs by LC-MS/MS analysis; assay type: ADME, organism-based; design: dose 10 mg/kg, time < 24 hrs, route iv; settings: in vivo
Rattus norvegicus = experiment: In vivo inhibition of KHK in 16 hr fasted Sprague-Dawley rat assessed as inhibition of metabolic clearance of fructose at 50 to 150 mg/kg, po pretreated for 1 hr followed fructose induction and measured after 0.5 to 3 hrs by ELISA method; assay type: functional, organism-based; settings: dose lower 50.0 mg/kg, dose upper […], time upper 4.0 hrs
[4] = Metabolic stability in mouse hepatocyte assessed as parent compound remaining at 10 uM measured after 4 hrs by LC-MS/MS analysis; assay type: ADME, cell-based; settings: hepatocytes, read-out: Stability
[5] = Cmax in Sprague-Dawley rat at 10 mg/kg, po administered as single dose measured upto 24 hrs by LC-MS/MS analysis; assay type: ADME, organism-based; design: time < 24 hrs, dose 10 mg/kg, route po; settings: in vivo
[6] = Drug metabolism in mouse hepatocytes assessed as glucuronidation metabolite at 10 uM measured upto 240 mins by LC-MS/MS analysis; assay type: ADME, cell-based, Hepatocyte; settings: 4 h
Cytochrome P450 1A2 = target: T1, Cytochrome P450 1A2 (Homo sapiens, UniProt P05177); experiment: Time dependent inhibition of CYP1A2 in human liver microsomes at 10 uM preincubated for 30 mins followed by substrate addition and measured after 15 mins in presence of NADPH by LC-MS/MS analysis; assay type: ADME, Microsome
T1 sequence (P05177 whole entry): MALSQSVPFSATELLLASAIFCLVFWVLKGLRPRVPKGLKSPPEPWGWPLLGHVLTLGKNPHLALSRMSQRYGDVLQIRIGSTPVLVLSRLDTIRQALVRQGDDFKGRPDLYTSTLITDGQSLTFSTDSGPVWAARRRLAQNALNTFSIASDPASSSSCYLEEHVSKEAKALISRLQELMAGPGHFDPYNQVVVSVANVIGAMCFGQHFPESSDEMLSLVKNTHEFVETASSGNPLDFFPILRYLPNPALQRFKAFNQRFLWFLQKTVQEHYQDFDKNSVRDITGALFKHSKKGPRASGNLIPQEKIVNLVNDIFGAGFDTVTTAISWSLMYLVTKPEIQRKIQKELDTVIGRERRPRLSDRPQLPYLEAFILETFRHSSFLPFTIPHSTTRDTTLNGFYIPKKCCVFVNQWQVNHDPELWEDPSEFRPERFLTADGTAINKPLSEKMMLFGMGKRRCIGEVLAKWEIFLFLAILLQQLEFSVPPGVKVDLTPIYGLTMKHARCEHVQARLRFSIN

Cytochrome P450 3A4 = Cytochrome P450 3A4 (Homo sapiens, UniProt P08684); experiment: Time dependent inhibition of CYP3A4 in human liver microsomes at 10 uM preincubated for 30 mins followed by substrate addition and measured after 15 mins in presence of NADPH by LC-MS/MS analysis; assay type: ADME, Microsome
Chain of Cytochrome P450 3A4 (P08684 whole entry): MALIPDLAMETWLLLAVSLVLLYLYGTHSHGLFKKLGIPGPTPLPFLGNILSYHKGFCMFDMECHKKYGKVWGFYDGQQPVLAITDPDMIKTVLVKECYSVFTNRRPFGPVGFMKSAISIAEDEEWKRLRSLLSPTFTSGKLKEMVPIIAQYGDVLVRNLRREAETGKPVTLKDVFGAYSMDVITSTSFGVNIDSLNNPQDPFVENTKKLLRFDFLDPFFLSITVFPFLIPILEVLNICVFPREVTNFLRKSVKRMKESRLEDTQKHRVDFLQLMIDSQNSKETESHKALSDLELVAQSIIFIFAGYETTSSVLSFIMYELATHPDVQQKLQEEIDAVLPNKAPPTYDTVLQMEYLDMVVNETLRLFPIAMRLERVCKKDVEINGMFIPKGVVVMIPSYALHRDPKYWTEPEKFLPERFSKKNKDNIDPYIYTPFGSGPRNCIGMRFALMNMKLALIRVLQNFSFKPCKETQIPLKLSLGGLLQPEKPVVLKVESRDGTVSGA

[7] = Volume of distribution at steady state in Beagle dog at 1 mg/kg, iv administered as single dose measured upto 24 hrs by LC-MS/MS analysis; assay type: ADME, organism-based, Canis lupus familiaris; settings: in vivo, read-out: Vdss
[8] = Clearance in Beagle dog at 1 mg/kg, iv administered as single dose measured upto 24 hrs by LC-MS/MS analysis; assay type: ADME, organism-based, Canis lupus familiaris; settings: in vivo
Cytochrome P450 2C9 = Cytochrome P450 2C9 (Homo sapiens, UniProt P11712)
Chain of Cytochrome P450 2C9 (P11712 whole entry): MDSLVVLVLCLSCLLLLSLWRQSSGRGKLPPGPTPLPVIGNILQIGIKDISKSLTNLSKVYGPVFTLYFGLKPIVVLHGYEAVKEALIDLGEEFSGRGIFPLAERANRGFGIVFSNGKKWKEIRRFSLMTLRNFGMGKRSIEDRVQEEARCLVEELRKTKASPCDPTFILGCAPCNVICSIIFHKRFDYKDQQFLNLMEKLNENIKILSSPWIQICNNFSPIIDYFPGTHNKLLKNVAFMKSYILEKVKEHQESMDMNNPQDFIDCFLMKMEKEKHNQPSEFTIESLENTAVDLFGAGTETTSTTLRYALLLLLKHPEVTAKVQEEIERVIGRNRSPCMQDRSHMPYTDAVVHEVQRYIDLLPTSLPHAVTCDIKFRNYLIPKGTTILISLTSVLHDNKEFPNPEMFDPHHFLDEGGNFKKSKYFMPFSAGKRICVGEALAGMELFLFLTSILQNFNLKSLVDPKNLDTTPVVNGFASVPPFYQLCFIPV
Description: Inhibition of CYP2C9 in human liver microsomes at 0.1 to 30 uM measured for 5 mins in presence of NADPH by LC-MS/MS analysis

Cytochrome P450 2C19 = Cytochrome P450 2C19 (Homo sapiens, UniProt P33261); experiment: Time dependent inhibition of CYP2C19 in human liver microsomes at 10 uM preincubated for 30 mins followed by substrate addition and measured after 15 mins in presence of NADPH by LC-MS/MS analysis; assay type: ADME, Microsome
Chain of Cytochrome P450 2C19 (P33261 whole entry): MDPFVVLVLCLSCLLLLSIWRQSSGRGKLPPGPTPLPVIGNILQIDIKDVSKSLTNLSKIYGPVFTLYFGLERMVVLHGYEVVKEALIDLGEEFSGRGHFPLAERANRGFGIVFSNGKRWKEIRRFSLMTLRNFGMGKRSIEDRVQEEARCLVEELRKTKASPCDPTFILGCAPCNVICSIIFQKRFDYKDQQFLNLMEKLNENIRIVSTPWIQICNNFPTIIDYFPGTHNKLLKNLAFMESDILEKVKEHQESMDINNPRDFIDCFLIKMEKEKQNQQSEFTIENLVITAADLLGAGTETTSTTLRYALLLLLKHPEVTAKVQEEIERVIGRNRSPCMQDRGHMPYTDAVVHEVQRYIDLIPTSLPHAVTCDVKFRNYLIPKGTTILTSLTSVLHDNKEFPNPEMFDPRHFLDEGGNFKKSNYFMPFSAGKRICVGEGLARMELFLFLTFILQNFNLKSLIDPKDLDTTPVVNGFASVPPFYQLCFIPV

[9] = AUC (0 to t) in Beagle dog at 5 mg/kg, po administered as single dose measured upto 24 hrs by LC-MS/MS analysis; assay type: ADME, organism-based, Canis lupus familiaris; design: dose 5 mg/kg, time < 24 hrs, route po; settings: in vivo
[10] = Oral bioavailability in Beagle dog at 5 mg/kg administered as single dose measured upto 24 hrs by LC-MS/MS analysis; assay type: ADME, organism-based, Canis lupus familiaris; settings: in vivo
[11] = AUC (0 to infinity) in Sprague-Dawley rat at 10 mg/kg, iv administered as single dose measured upto 24 hrs by LC-MS/MS analysis; assay type: ADME, organism-based; design: dose 10 mg/kg, time < 24 hrs, route iv; settings: in vivo
in vivo [12] = settings: Sprague-Dawley, rat, spleen, po, 10 mg/kg
Description: Drug concentration in Sprague-Dawley rat spleen at 10 mg/kg, po administered as single dose measured upto 24 hrs by LC-MS/MS analysis

[13] = MRT (0 to t) in Beagle dog at 1 mg/kg, iv administered as single dose measured upto 24 hrs by LC-MS/MS analysis; assay type: ADME, organism-based, Canis lupus familiaris; settings: in vivo
[14] = MRT (0 to t) in Sprague-Dawley rat at 10 mg/kg, po administered as single dose measured upto 24 hrs by LC-MS/MS analysis; assay type: ADME, organism-based; settings: in vivo
[15] = Elimination half life in Sprague-Dawley rat at 10 mg/kg, iv administered as single dose measured upto 24 hrs by LC-MS/MS analysis; assay type: ADME, organism-based; settings: in vivo, read-out: beta t1/2 (converted)
in vitro [16] = settings: human, Caco-2; remark: listed apart in the source
Description: Apparent permeability of the compound across apical side to basolateral side in human Caco-2 cells at 10 uM incubated for 2 hrs by LC-MS/MS analysis

[17] = Metabolic stability in rat hepatocyte assessed as parent compound remaining at 10 uM measured after 4 hrs by LC-MS/MS analysis; assay type: ADME, cell-based; settings: hepatocytes, read-out: Stability
in vitro [18] = settings: mouse, hepatocytes
[19] = Elimination half life in Sprague-Dawley rat at 10 mg/kg, po administered as single dose measured upto 24 hrs by LC-MS/MS analysis; assay type: ADME, organism-based; settings: in vivo, read-out: beta t1/2 (converted)
physchem = settings: buffer, pH 7.4
HepG2 = experiment: cells; settings: Homo sapiens, HepG2, 48 h
Description: Cytotoxicity against human HepG2 cells measured after 48 hrs by microscopy based analysis

in vivo [20] = settings: Sprague-Dawley, rat, lung, po, 10 mg/kg
Description: Drug concentration in Sprague-Dawley rat lung at 10 mg/kg, po administered as single dose measured upto 24 hrs by LC-MS/MS analysis

Ketohexokinase [21] = target: T2, Ketohexokinase (Homo sapiens, UniProt P50053)
T2 sequence (P50053 whole entry): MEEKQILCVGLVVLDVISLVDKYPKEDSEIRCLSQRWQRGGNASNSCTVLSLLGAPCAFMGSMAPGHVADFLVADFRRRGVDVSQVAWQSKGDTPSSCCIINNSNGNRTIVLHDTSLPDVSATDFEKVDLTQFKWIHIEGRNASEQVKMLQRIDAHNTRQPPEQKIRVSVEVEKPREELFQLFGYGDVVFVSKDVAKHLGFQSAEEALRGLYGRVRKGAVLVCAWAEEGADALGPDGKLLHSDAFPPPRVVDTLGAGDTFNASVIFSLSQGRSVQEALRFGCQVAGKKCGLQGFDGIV
Description: Inhibition of N-terminal his tagged human recombinant KHK-C expressed in Escherichia coli incubated for 60 mins in presence of ATP by ADP Glo assay

in vitro [22] = settings: human, liver microsomes
Ketohexokinase [23] = target: T2, Ketohexokinase; remark: listed apart in the source
Description: Inhibition of N-terminal his tagged human recombinant KHK-A expressed in Escherichia coli incubated for 60 mins in presence of ATP by ADP Glo assay

[24] = Drug metabolism in rat hepatocytes assessed as oxidation/hydrogenation/decarboxylation metabolite at 10 uM measured upto 240 mins by LC-MS/MS analysis; assay type: ADME, cell-based, Hepatocyte; settings: 4 h

Structure (SMILES): C[C@H]1CCN1c1nc(N2CC[C@H](CCC(=O)O)C2)c2c(n1)C(F)(F)CC2
- Vd [1]: 0.89 L/kg
- efflux ratio (in vitro [2]): 7.45
- AUCt [3]: 73000 ng·h/mL
- inhibition (Rattus norvegicus): Active
- remaining at 4 h, 10 µM [4]: 96.6%
- Cmax [5]: 4900 ng/mL
- Drug metabolism [6]: Metabolite_Notdetected
- IC50 (Cytochrome P450 1A2): > 10 µM
- IC50 (Cytochrome P450 3A4): > 10 µM
- Vd [7]: 0.87 L/kg
- clearance [8]: 3.06 mL/min/kg
- IC50 (Cytochrome P450 2C9): > 30 µM
- IC50 (Cytochrome P450 2C19): > 10 µM
- AUCt [9]: 33400 ng·h/mL
- bioavailability [10]: 122%
- AUC [11]: 76200 ng·h/mL
- concentration at 24 h (in vivo [12]): 1140 ng/g
- MRT last at 24 h [13]: 4.61 h
- MRT last at 24 h [14]: 8.5 h
- half-life [15]: 5.82 h
- Papp A→B at 2 h, 10 µM (in vitro [16]): 3.64 ×10⁻⁶ cm/s
- remaining at 4 h, 10 µM [17]: 98.2%
- hepatocyte CLint at 2 h, 1 µM (in vitro [18]): < 0.96 µL/min/1e6 cells
- half-life [19]: 7.16 h
- logD (physchem): 0.14
- IC50 (HepG2): > 150 µM
- concentration at 24 h (in vivo [20]): 620 ng/g
- IC50 (Ketohexokinase [21]): 0.0351 µM
- microsomal CLint at 2 h, 1 µM (in vitro [22]): 6.4 µL/min/mg
- IC50 (Ketohexokinase [23]): 0.0572 µM
- Drug metabolism [24]: Metabolite_Notdetected
